{"source": "patent US9609884B2", "about": "“Anti-fatigue agent” (Suntory Holdings Limited, priority 2007, dated 2017)", "assay_type_in_all_cases": "in vivo", "key": {"[1]": {"tested_on": "Sprague Dawley male rats under exercise stress", "test": "Forced exercise test, sesamin given after treadmill exercise stress (recovery from fatigue)", "settings": "180 mg/kg oral in olive oil after 3-hr treadmill exercise stress; versus control group under exercise stress", "description": "The second thing to do is measure the motor activity in a forced exercise test. Rats administered with the test substance are forced to have exercise on a treadmill and, thereafter, the motor activity of the animal in the dark period is measured. Since this is an animal model for fatigue from exercise (physical fatigue), an increase in the motor activity as achieved by administering it with the test substance means the verification of resistance to fatigue.\nThe test sample used in Example 2 was the same sesamin as in Example 1.\nSprague Dawley male rats (6-week old) were acclimatized in a test environment for a week and the animals that had shown normal growth were subjected to the test. One day before the start of the test, the rats were divided into five groups each consisting of eight animals. On the day of the test, all animals were starved from the morning and one group of rats was assigned as a resting group that was not to be subjected to exercise stress. […] Thereafter, the animals were transferred to an automatograph (Supermex manufactured by MUROMACHI KIKAI CO., LTD.) and their motor activity in the dark period was measured."}, "[2]": {"tested_on": "Balb/c male mice kept under water immersion stress", "test": "Measuring fatigue-causing substances (ketone bodies) in the blood of mice under water immersion stress", "settings": "50 mg/kg oral once a day for three days during water immersion; versus control group under water immersion stress (olive oil)", "excerpt": "The third thing to do is measure the amount of fatigue-causing substances in the blood. This involves administering the test substance to check to see if it has an action for controlling an increase in the blood concentration of fatigue-causing substances under a physical or mental stress. Although no substances have been identified to be causative of fatigue, one class of candidates may be ketone bodies (collectively referring to acetoacetate, 3-hydroxybutyrate, and acetone). Ketone bodies are known to be metabolites that are produced when free fatty acids […] from the fat tissue on account of lowered glucose availability undergo β-oxidation. If the production of ketone bodies is enhanced beyond their utilization in the extrahepatic tissues, ketone bodies accumulate in the blood, leading to ketosis. Actoacetate and 3-hydroxybutyrate are moderately strong acids, so if ketone bodies accumulate in amounts exceeding the buffering action of the living body, the blood becomes acidic, causing a condition known as acidosis which, in turn, produces a feeling of weariness (Takanori Yamamoto, Igaku no ayumi (Progress in Medicine), Vol. 204, No. 5:325-329, 2003). […]\nAfter three days, blood was drawn from each mouse and the ketone bodies in the serum were measured by the enzyme method with a biochemical automatic analyzer (Model 7070 of Hitachi, Ltd.)"}, "[3]": {"tested_on": "Balb/c male mice kept under water immersion stress", "test": "Water immersion sleep disturbed test (forced swimming under weight load)", "settings": "once a day for two days during water immersion, weight 8% of body weight", "description": "The first thing to do is measure the swimming time in a water immersion sleep disturbed test. Mice that have been kept in an environment such as water immersion where they are unable to have a good sleep or take a rest position so they cannot have a physical or mental rest are forced to swim under a weight load and the time it takes for them to have their nose sunk in the water for a period of ten seconds or longer is measured to confirm the degree of their fatigue. Since this is an animal model for physical or mental fatigue, an extension of the swimming time as achieved by administering it with the test substance means the verification of resistance to fatigue, as exemplified by relief of physical and/or mental fatigue, maintenance of physical vigor in the tired model (increase in body strength), or improvement of stamina. A sesamin/episesamin mixture (sesamin:episesamin=1:1 in weight ratio) was used as a test sample. Effectiveness against fatigue was evaluated by the following partial modification of the method of Tanaka et al. (Neuroscience, Let. 352, 159-162, 2003). The test animals Balb/c male mice (8-week old) were divided into five groups, each consisting of 12 animals and having the same average body weight. Four of those five groups were water immersion groups, which were kept in breeding cages, not on paper chips but in tap water (23° C.) supplied to a depth of 7 mm, thereby disturbing sleep of the mice. […] After two days, each mouse was fitted with a weight at the tail which corresponded to 8% of its body weight, and was allowed to swim in a water tank of 18 cm^φ that was filled with water to a depth of 30 cm; the time it took for each mouse to have its nose sunk in water for a period of at least 10 seconds was measured. The mice in the groups kept under water immersion stress could swim for a shorter period than the mice in the normally kept group and the degree by which the shortening of the swimming time could be controlled in the sesamin administered groups was measured to evaluate the effectiveness of sesamin against fatigue. […]"}, "[4]": {"tested_on": "Sprague Dawley male rats under exercise stress", "test": "Forced exercise test, sesamin-mixed feed for a week before treadmill exercise stress (prevention of fatigue)", "settings": "versus exercise fatigue control group", "description": "The second thing to do is measure the motor activity in a forced exercise test. Rats administered with the test substance are forced to have exercise on a treadmill and, thereafter, the motor activity of the animal in the dark period is measured. Since this is an animal model for fatigue from exercise (physical fatigue), an increase in the motor activity as achieved by administering it with the test substance means the verification of resistance to fatigue. The test sample used in Example 3 was the same sesamin as in Example 1. Sprague Dawley male rats (10-week old) were acclimatized in a test environment for a week and the animals that had shown normal growth were subjected to the test. The rats were divided into three groups each consisting of eight animals. Then, AI[…] was mixed with sesamin to give final concentrations of 0, 0.02, and 0.1% (w/w) to prepare feeds and the rats were let to ingest the respective feeds ad libitum for a week. Thereafter, all animals were given a 3-hr exercise stress by means of a treadmill-type forced walking apparatus (MK-680 manufactured by MUROMACHI KIKAI CO., LTD.) After the end of exercise stress application, the animals were transferred to an automatograph (Supermex manufactured by MUROMACHI KIKAI CO., LTD.) and their motor activity in the dark period was measured."}}, "data": [{"smiles": "c1cc2c(cc1[C@H]1OC[C@H]3[C@@H]1CO[C@@H]3c1ccc3c(c1)OCO3)OCO2", "note": "[sesamin]", "values": [{"measurement": "motor activity in the dark period", "setting": "[1]", "result": "an increase in the motor activity was confirmed"}, {"measurement": "concentration of ketone bodies in the serum", "setting": "[2]", "result": "significant control of the increase in the concentration of ketone bodies"}, {"measurement": "swimming time (control group kept under water immersion stress taken as 100%)", "setting": "[3]; 12.5 mg/kg oral", "result": 150, "unit": "%"}, {"measurement": "swimming time (control group kept under water immersion stress taken as 100%)", "setting": "[3]; 50 mg/kg oral", "result": 300, "unit": "%"}, {"measurement": "swimming time (control group kept under water immersion stress taken as 100%)", "setting": "[3]; 200 mg/kg oral", "result": 133, "unit": "%"}, {"measurement": "motor (physical) activity in the dark period", "setting": "[4]; mixed feed containing 0.02% (w/w) sesamin ad libitum for a week before 3-hr exercise stress", "result": "almost the same physical activity"}, {"measurement": "motor (physical) activity in the dark period", "setting": "[4]; mixed feed containing 0.1% (w/w) sesamin (about 80 mg/kg) ad libitum for a week before 3-hr exercise stress", "result": "enhanced physical activity"}]}]}
